Test results taken from patent US8883827B2, “Azole derivatives as WTN pathway inhibitors” (Oslo University Hospital HF, priority 2009, dated 2014).

Key:
Plk3(h) = target: T1, Plk3(h) (Homo sapiens, UniProt Q9H4B4); assay: Kinase screen; format: biochemical; conditions: 0.1% DMSO control = 100%
T1 construct: purchased Millipore (KinaseProfiler service)

c-RAF(h) = target: T2, c-RAF(h) (Homo sapiens, UniProt P04049); assay: Kinase screen; format: biochemical; conditions: 0.1% DMSO control = 100%
T2 construct: purchased Millipore (KinaseProfiler service)
T2 sequence (P04049 whole entry): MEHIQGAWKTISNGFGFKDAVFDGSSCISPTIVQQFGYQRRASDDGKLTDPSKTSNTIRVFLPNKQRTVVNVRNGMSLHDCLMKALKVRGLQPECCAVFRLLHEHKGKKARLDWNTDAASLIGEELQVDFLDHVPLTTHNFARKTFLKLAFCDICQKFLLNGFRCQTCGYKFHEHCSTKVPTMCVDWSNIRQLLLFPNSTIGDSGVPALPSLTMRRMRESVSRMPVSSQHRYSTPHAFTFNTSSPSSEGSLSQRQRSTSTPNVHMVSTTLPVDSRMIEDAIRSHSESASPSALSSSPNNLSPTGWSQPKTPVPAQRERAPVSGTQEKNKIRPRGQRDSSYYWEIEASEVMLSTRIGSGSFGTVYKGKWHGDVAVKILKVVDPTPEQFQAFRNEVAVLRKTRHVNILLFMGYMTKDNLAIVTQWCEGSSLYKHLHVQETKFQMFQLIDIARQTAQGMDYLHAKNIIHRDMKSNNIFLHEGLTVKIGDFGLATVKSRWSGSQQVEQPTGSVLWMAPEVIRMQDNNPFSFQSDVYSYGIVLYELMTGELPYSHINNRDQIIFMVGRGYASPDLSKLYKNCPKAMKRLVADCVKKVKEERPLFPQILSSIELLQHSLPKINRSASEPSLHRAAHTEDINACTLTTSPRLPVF

SW480 cells [1] = assay: BrdU/PI cell cycle analysis; format: cell-based; conditions: 25 μM, 72 h
Method: Cell cycle progression was measured by BrdU labeling of cultured cells that were counterstained with propidium iodide (PI).
SW480 cells were seeded and exposed to compounds for 3 days changing medium every day as described in Example 24. After a 30 minute incubation with 10 μM BrdU, the cells were trypsinized and stained with 1:100 diluted mouse anti-BrdU antibody (Roche) and Alexa Fluor®488 goat anti-mouse antibody (A 11001, Invitrogen). Counterstaining was done with 10 μg/mL PI in 200 μg/mL RNase I (both Sigma). Samples were analyzed on the PAS-PPCS flow cytometer and cell sorter (Partec).

JAK2(h) = target: T3, JAK2(h) (Homo sapiens, UniProt O60674); assay: Kinase screen; format: biochemical; conditions: 0.1% DMSO control = 100%
T3 construct: purchased Millipore (KinaseProfiler service)
T3 sequence (O60674 whole entry): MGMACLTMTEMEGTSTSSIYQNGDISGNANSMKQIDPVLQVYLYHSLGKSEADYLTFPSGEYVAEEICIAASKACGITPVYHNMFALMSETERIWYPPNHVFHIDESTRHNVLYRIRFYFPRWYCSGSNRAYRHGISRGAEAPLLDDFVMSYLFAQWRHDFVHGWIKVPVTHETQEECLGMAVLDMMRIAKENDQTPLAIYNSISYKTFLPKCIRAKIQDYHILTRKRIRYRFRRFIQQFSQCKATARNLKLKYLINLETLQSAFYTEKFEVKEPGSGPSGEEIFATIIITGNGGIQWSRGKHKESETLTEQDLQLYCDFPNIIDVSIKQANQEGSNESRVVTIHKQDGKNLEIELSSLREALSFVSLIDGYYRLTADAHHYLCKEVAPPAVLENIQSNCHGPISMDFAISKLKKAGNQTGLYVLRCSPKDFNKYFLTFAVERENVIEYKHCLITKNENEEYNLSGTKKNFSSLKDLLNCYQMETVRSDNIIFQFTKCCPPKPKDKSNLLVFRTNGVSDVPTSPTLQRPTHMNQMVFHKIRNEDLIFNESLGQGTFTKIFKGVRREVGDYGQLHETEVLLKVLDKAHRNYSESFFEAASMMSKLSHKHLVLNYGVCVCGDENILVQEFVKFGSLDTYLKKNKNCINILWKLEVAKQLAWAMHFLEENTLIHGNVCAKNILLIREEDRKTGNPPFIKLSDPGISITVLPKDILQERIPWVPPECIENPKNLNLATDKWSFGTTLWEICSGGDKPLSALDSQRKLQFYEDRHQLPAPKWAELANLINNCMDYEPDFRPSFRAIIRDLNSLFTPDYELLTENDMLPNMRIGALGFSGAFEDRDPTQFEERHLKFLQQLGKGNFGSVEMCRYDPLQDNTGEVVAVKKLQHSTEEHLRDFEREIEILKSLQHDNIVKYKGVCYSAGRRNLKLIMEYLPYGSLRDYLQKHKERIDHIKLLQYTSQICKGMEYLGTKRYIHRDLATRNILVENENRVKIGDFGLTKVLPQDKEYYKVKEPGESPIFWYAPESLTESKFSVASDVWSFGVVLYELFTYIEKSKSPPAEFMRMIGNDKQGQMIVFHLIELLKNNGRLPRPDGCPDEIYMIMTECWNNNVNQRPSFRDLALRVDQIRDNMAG

[2] = system: canonical Wnt signaling activated by β-catenin constructs; assay: ST-Luc reporter in HEK293 cells co-transfected with β-catenin variants; conditions: 10 or 25 μM, 24 h
Method: These included full-length β-catenin, β-catenin with point mutations at N-terminal phosphorylation sites (dominant active, da-Cat), N-terminal deletion of β-catenin (ΔN-Cat) as another dominant active form, and β-catenin C-terminal transactivation domain fused to LEF-1 (CLEF) functioning as dominant active LEF-1. Plasmid amounts used for transfections were diminished to nanograms per 48-well plate to obtain a pathway induction in the range of 10-20 fold.
Transfection was performed as described in Example 22, but using β-catenin variants co-transfected in the following plasmid combinations:
1) 0.215 μg SuperTOPFlash+0.02 μg Renilla+0.015 μg β-catenin;
2) 0.23 μg SuperTOPFlash+0.02 μg Renilla+0.2 ng da-Cat (dominant active β-catenin (S33, 37, 41 and 45A mutated);
3) 0.23 μg SuperTOPFlash+0.02 μg Renilla+0.2 ng ΔN-Cat (N-terminal deleted β-catenin; and
4) 0.23 μg SuperTOPFlash+0.02 μg Renilla+0.2 ng CLEF (β-catenin transactivation domain fused to LEF-1).

MAPK2(h) = target: T4, MAPK2(h) (Homo sapiens, UniProt P28482); assay: Kinase screen; format: biochemical; conditions: 0.1% DMSO control = 100%
T4 construct: purchased Millipore (KinaseProfiler service)
T4 sequence (P28482 whole entry): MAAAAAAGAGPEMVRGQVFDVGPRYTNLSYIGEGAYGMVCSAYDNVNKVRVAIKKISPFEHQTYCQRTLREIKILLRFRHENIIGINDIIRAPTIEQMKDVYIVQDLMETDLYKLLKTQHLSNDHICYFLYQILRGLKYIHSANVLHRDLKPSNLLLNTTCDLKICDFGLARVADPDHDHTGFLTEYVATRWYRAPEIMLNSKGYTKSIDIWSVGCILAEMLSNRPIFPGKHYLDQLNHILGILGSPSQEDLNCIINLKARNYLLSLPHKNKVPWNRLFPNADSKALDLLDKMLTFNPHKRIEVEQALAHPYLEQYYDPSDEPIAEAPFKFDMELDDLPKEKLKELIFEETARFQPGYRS

SAPK2a(h) = target: T5, SAPK2a(h) (Homo sapiens, UniProt Q16539); assay: Kinase screen; format: biochemical; conditions: 0.1% DMSO control = 100%
T5 construct: purchased Millipore (KinaseProfiler Service)

RPTPm(h) = target: T6, RPTPm(h) (Homo sapiens, UniProt P28827); assay: Phosphatase screen; format: biochemical; conditions: 0.1% DMSO control = 100%
T6 construct: purchased Millipore (KinaseProfiler service)

DLD-1 cells = assay: Real-time RT-PCR of Wnt target genes; format: cell-based; conditions: 10 (or 25) M as printed, 72 h, relative to GAPDH
Method: (§1) A real-time RT-PCR analysis was employed to confirm specific inhibition of expressed Wnt target genes. […] After 24 hours, solutions containing compound No. 1 were added at 10 or 25 μm final concentrations. Media containing the test compound were changed daily for 3 days. […] Real Time RT-PCR (SYBR Green PCR Mastermix, Stratagene) was performed using the following primers on a Mx3000P® QPCR System real-time thermal cycler (Stratagene): Results were calculated as the ratio of expression of target gene to a control gene (GAPDH).

SW480 cells [3] = assay: Real-time RT-PCR of Wnt target genes; format: cell-based; conditions: 10 (or 25) M as printed, 72 h, relative to GAPDH
Method: as §1

MSK2(h) = target: T7, MSK2(h) (Homo sapiens, UniProt O75676); assay: Kinase screen; format: biochemical; conditions: 0.1% DMSO control = 100%
T7 construct: purchased Millipore (KinaseProfiler service)

PTP MEG1(h) = target: T8, PTP MEG1(h) (Homo sapiens, UniProt P29074); assay: Phosphatase screen; format: biochemical; conditions: 0.1% DMSO control = 100%
T8 construct: purchased Millipore (KinaseProfiler service)

MKP5(h) = target: T9, MKP5(h) (Homo sapiens, UniProt Q9Y6W6); assay: Phosphatase screen; format: biochemical; conditions: 0.1% DMSO control = 100%
T9 construct: purchased Millipore (KinaseProfiler service)

EphB4(h) = target: T10, EphB4(h) (Homo sapiens, UniProt P54760); assay: Kinase screen; format: biochemical; conditions: 0.1% DMSO control = 100%
T10 construct: purchased Millipore (KinaseProfiler service)

PKCθ(h) = target: T11, PKCθ(h) (Homo sapiens, UniProt Q04759); assay: Kinase screen; format: biochemical; conditions: 0.1% DMSO control = 100%
T11 construct: purchased Millipore (KinaseProfiler service)
T11 sequence (Q04759 whole entry): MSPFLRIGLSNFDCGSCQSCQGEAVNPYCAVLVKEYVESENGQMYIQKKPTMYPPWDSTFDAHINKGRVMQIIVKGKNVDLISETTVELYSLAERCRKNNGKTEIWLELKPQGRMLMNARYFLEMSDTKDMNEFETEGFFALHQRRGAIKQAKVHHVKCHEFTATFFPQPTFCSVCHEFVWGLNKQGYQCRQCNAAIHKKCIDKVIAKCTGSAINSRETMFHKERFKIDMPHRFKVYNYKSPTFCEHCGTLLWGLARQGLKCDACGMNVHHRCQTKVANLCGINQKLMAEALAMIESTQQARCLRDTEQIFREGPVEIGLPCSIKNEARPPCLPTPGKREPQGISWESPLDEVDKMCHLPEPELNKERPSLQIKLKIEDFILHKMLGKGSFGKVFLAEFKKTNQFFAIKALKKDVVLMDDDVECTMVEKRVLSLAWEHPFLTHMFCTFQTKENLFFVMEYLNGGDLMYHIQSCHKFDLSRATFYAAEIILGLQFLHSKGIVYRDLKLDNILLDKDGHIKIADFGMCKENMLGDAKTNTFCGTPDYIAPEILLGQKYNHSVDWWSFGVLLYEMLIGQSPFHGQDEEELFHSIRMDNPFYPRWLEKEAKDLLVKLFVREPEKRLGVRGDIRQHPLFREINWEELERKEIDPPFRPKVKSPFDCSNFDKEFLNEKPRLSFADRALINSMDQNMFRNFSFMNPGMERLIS

TNF-α pathway = assay: NF-κB-Luciferase reporter in HEK293 cells with rTNF-α; format: cell-based; conditions: 1 or 10 μM, 24 h, 10 ng/ml rTNF-α
Text: 2) HEK293 cells transiently transfected with a NF-κB-Luciferase reporter (NF-κB-Luc—purchased from Promega).

CD45(h) = target: T12, CD45(h) (Homo sapiens, UniProt P08575); assay: Phosphatase screen; format: biochemical; conditions: 0.1% DMSO control = 100%
T12 construct: purchased Millipore (KinaseProfiler service)

[4] = system: Wnt signaling pathway in SW480 cells; assay: ST-d1EGFP reporter in SW480 cells (flow cytometry); format: cell-based; conditions: 25 µM compound, 72 h
Method: 3) the SW480 colorectal cell line, which has an aberrant Wnt activity caused by spontaneous mutations in the APC locus, transfected with the construct ST-d1EGFP. In this cell line, d1EGFP reporter is activated without using Wnt-3a CM, i.e. the cell line has permanently “switched on” Wnt signaling pathway.
100000 ST-d1EGFP SW480 and SW480 CMV-d1EGFP (Clontech) SW480 cells were plated on 12-well plates and 1, 10 or 25 μM of compound No. 1 (or 0.01%, 0.1% or 0.25% DMSO—controls) was added to the cells the following day. After a 72 hour incubation, samples were trypsinized and analysed for d1EGFP expression on a PAS-PPCS flowcytometer and cell sorter (Partec).

GSK3β(h) = target: T13, GSK3β(h) (Homo sapiens, UniProt P49841); assay: Kinase screen; format: biochemical; conditions: 0.1% DMSO control = 100%
T13 construct: purchased Millipore (KinaseProfiler service)
T13 sequence (P49841 whole entry): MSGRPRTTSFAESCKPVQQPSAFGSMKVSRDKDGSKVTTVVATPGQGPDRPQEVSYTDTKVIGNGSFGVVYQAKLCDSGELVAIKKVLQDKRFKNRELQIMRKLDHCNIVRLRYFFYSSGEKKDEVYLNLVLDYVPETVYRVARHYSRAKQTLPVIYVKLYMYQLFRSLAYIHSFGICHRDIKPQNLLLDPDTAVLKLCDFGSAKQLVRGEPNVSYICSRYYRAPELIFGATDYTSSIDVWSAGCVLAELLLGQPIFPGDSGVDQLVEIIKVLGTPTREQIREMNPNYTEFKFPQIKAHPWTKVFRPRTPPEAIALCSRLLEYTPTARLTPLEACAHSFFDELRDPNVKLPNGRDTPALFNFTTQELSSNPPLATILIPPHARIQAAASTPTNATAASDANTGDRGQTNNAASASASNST

LMPTP-B(h) = target: T14, LMPTP-B(h) (Homo sapiens, UniProt P24666); assay: Phosphatase screen; format: biochemical; conditions: 0.1% DMSO control = 100%
T14 construct: purchased Millipore (KinaseProfiler service)
T14 sequence (P24666 1-158 isoform P24666-2): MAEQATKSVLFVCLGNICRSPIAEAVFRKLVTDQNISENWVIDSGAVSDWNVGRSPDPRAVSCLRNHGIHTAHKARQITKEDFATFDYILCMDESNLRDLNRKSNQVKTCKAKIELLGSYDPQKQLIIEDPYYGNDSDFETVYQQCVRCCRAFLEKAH

CDK1/cyclinB(h) = target: T15, CDK1/cyclinB(h) (Homo sapiens, UniProt P06493); assay: Kinase screen; format: biochemical; conditions: 0.1% DMSO control = 100%
T15 construct: purchased Millipore (KinaseProfiler service)
T15 sequence (P06493 whole entry): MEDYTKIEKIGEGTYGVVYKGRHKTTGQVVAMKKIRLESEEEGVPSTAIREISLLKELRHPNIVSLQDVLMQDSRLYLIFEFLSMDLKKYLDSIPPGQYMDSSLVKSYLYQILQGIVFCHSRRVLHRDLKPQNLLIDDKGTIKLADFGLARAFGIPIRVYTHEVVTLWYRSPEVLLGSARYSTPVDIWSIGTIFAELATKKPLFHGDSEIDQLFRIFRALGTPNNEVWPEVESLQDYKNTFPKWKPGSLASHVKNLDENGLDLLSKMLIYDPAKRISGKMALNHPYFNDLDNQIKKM
T15 sequence (P14635 whole entry partner): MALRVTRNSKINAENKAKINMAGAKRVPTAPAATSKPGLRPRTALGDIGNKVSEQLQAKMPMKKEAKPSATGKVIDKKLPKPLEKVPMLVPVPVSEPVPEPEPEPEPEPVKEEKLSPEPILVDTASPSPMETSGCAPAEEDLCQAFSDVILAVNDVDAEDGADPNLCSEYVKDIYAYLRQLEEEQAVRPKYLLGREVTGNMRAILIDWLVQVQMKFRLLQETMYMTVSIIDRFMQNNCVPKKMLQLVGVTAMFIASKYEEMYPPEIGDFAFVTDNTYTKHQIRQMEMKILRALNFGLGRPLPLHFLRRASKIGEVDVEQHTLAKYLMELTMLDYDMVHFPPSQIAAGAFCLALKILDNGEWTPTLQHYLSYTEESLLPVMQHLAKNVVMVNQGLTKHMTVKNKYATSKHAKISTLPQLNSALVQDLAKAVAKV

CK1γ1(h) = target: T16, CK1γ1(h) (Homo sapiens, UniProt Q9HCP0); assay: Kinase screen; format: biochemical; conditions: 0.1% DMSO control = 100%
T16 construct: purchased Millipore (KinaseProfiler service)

LOK(h) = target: T17, LOK(h) (Homo sapiens, UniProt O94804); assay: Kinase screen; format: biochemical; conditions: 0.1% DMSO control = 100%
T17 construct: purchased Millipore (KinaseProfiler service)

VHR(h) = target: T18, VHR(h) (Homo sapiens, UniProt P51452); assay: Phosphatase screen; format: biochemical; conditions: 0.1% DMSO control = 100%
T18 construct: purchased Millipore (KinaseProfiler service)
T18 sequence (P51452 whole entry): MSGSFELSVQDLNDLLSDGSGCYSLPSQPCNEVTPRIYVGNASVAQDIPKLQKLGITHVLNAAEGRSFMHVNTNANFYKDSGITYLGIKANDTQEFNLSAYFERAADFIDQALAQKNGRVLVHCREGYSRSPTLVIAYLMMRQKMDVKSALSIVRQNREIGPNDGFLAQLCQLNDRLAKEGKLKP

PAK2(h) = target: T19, PAK2(h) (Homo sapiens, UniProt Q13177); assay: Kinase screen; format: biochemical; conditions: 0.1% DMSO control = 100%
T19 construct: purchased Millipore (KinaseProfiler service)

TCPTP(h) = target: T20, TCPTP(h) (Homo sapiens, UniProt P17706); assay: Phosphatase screen; format: biochemical; conditions: 0.1% DMSO control = 100%
T20 construct: purchased Millipore (KinaseProfiler service)

CHK1(h) = target: T21, CHK1(h) (Homo sapiens, UniProt O14757); assay: Kinase screen; format: biochemical; conditions: 0.1% DMSO control = 100%
T21 construct: purchased Millipore (KinaseProfiler service)

Rse(h) = target: T22, Rse(h) (Homo sapiens, UniProt Q06418); assay: Kinase screen; format: biochemical; conditions: 0.1% DMSO control = 100%
T22 construct: purchased Millipore (KinaseProfiler service)

T1 sequence (Q9H4B4 whole entry): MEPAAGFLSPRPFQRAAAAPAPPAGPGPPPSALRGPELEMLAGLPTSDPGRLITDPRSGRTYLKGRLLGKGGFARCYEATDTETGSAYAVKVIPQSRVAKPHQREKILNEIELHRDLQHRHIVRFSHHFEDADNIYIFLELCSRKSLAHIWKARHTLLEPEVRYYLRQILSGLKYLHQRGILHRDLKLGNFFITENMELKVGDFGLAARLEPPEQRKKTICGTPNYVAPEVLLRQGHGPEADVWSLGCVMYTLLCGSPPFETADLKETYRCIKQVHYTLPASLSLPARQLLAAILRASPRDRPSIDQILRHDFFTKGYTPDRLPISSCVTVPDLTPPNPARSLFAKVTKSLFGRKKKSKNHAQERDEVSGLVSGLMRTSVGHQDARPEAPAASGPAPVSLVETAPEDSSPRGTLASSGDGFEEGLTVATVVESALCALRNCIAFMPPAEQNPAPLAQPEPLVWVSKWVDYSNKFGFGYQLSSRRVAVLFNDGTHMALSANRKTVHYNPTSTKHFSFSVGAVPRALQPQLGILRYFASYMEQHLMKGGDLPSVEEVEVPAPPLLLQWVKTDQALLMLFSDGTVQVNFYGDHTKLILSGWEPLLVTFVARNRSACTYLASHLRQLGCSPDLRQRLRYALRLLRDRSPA

COc1ccc(-n2c(SCc3nc(-c4ccc(C)cc4)no3)nnc2-c2ccncc2)cc1 [Compound 1]
activity at 10 µM (Plk3(h)): 104% | activity at 10 µM (c-RAF(h)): 98% | percentage of cells in S phase (SW480 cells [1]; DMSO control 28.4%): 16.2% | percentage of G1-phase cells (SW480 cells [1]; DMSO control 37.3%): 46.4% | activity at 10 µM (JAK2(h)): 118% | activation of canonical Wnt signaling by full-length β-catenin [2]: reduced | activation of the pathway by CLEF [2]: not significantly antagonized | activation of the pathway by da-Cat [2]: not significantly antagonized | activation of the pathway by ΔN-Cat [2]: not significantly antagonized | activity at 10 µM (MAPK2(h)): 105% | activity at 10 µM (SAPK2a(h)): 106% | activity at 10 µM (RPTPm(h)): 103% | Axin2, SP5 and NKD1 mRNA levels (DLD-1 cells): dose dependent reduction | Axin2, SP5 and NKD1 mRNA levels (SW480 cells [3]): dose dependent reduction | activity at 10 µM (MSK2(h)): 108% | activity at 10 µM (PTP MEG1(h)): 92% | activity at 10 µM (MKP5(h)): 99% | activity at 10 µM (EphB4(h)): 105% | activity at 10 µM (PKCθ(h)): 109% | effect against the TNF-α pathway (TNF-α pathway): no substantial activating or inhibitory effect | activity at 10 µM (CD45(h)): 108% | reduction of ratio of activity of ST-d1EGFP to CMV-d1EGFP [4]: 63.5% | activity at 10 µM (GSK3β(h)): 90% | activity at 10 µM (LMPTP-B(h)): 100% | activity at 10 µM (CDK1/cyclinB(h)): 101% | activity at 10 µM (CK1γ1(h)): 100% | activity at 10 µM (LOK(h)): 109% | activity at 10 µM (VHR(h)): 103% | activity at 10 µM (PAK2(h)): 99% | activity at 10 µM (TCPTP(h)): 100% | activity at 10 µM (CHK1(h)): 106% | activity at 10 µM (Rse(h)): 108%
